Laboratory results taken from US11938220B2, “Sustained-release anesthetic compositions and methods of preparation thereof” (TLC Biopharmaceuticals, Inc., priority 2018, dated 2024).

Tested on: Sprague-Dawley rats after paw incision
Experiment: Anesthetic effect in a paw incision rat model (Von Frey, 50% paw withdrawal threshold)
Format: in vivo
Conditions: intra-plantar injection after paw incision, 1.9 mg ropivacaine articles, 1.33 mg ER Bupivacaine per incision, 0.5 hour after injection
Text: FIG. 1A is a graph depicting 50% paw withdrawal threshold by a Von Frey test; wherein an anesthetic composition in accordance with the present disclosure (Ropivacaine composition) is our test article and ropivacaine injectable solution (unformulated ropivacaine) and commercial extended release liposomal bupivacaine (ER Bupivacaine) are used as reference articles. Saline, Ropivacaine composition, Ropivacaine injectable solution, and ER Bupivacaine were intra-plantarly administered after paw incision; the error bars represent the standard error of mean (SEM); and *:P<0.05 when compared to ER Bupivacaine group; BBL=Before surgery baseline; ABL=After surgery baseline.
FIG. 1B is a graph depicting the percentage of maximum possible effects (% MPE), calculated from the 50% paw withdrawal threshold using the formula % MPE=(Thresholdaftertreatment−ABL)/(BBL−ABL)×100%; wherein the error bars represent the standard error of mean (SEM); *:P<0.05 when compared to ER Bupivacaine group. MPE over 30% is considered effective;
Sprague-Dawley rats were used for evaluating the anesthetic efficacy after paw incision as described in Pain. 1996 March; 64(3):493-501. […]
Before surgery baselines (BBL) of 27 rats were measured −1 to −3 days prior to surgery; after surgery baselines (ABL) of 27 rats were measured 30 minutes after surgery. […]

`CCCN1CCCC[C@H]1C(=O)Nc1c(C)cccc1C` [unformulated ropivacaine, ropivacaine] was tested. Which “50% paw withdrawal threshold at T=0.5 hour” value did it give?
The value was 11.47 g.
